Laboratory results: patent publication US9890176B2, “Mannose derivatives for treating bacterial infections” (Vertex Pharmaceuticals Incorporated, priority 2013, dated 2018)

Each compound was assayed on bacterial strain LF82 binding to the glycoprotein BSA-(Mannose)3 (assay: Bacterial Binding Assay (BBA)). Conditions: read-out: Bacterial Binding Assay IC50.
Assay type: cell-based, Escherichia coli
Description: The purpose of the Bacterial Binding Assay (BBA) is to determine the inhibition activity of selective FimH antagonists on the bacterial strain LF82 binding to the glycoprotein BSA-(Mannose)3.
Below is a list of the Materials used to run the BBA are described below. • 1. LB broth: Supplier: Gibco, #10855 • 2. D-PBS: Supplier: Wisent, #311-425-CL • 3. LB agar plates • 4. 96-well black plate (high binding): Supplier: Costar, #3925 • 5. TopSeal™-A adhesive sealing films; Supplier PerkinElmer, #6005185 • 6. Carbonate-bicarbonate buffer pH 9.6 tablets, Supplier: Medicago, #09-8922-24 • 7. Water, Supplier: Gibco, #15230-162 • 8. Bovine serum albumin (BSA): Supplier: Sigma, #A-7888 • 9. (Man)-3-BSA (α1-3, α1-6 Mannotriose-BSA, 1 mg), V-Labs, #NGP1336, lot#HGDX37-169-1 • 10. Tween 20: Supplier: Sigma, #P9416 • 11. Bright-Glo Luciferase Assay System: Supplier: Promega, #E2610 • 12. LF82/Luciferase strain: Invasive ability of an Escherichia coli strain isolated from the ileal mucosa of a patient with Crohn's disease. Boudeau J, Glasser A L, Masseret E, Joly B, Darfeuille-Michaud A, Infect Immun. 1999, 67(9), 4499-509
Solutions and buffers used to run the BBA are described below. • 1. 0.04M carbonate-bicarbonate buffer (coating buffer) • 2. […] 1 mg of (Man)-3-BSA in 25 mL of water. • 3. 4000 ng/mL BSA • 4. 40 ng/mL BSA • 5. 1 μg/mL BSA-(Man)3: 150 μL of 40 ng/mL BSA-(Man)3+5.85 mL of 40 ng/mL BSA • 6. 0.5 μg/mL BSA-(Man)3 in 0.02M carbonate-bicarbonate buffer. • 7. 20 ng/mL BSA in 0.02M carbonate-bicarbonate buffer • 8. Blocking buffer (2% BSA/DPBS): 1 g of BSA in 50 mL D-PBS • 9. 2× binding buffer (0.2% BSA/D-PBS): 5 mL of blocking buffer+45 mL D-PBS. • 10. Washing buffer (D-PBS/0.01% Tween 20): 10 μL of Tween 20 in 100 mL D-PBS. • 11. 1× Bright-Glo Luciferase substrate:Dilute 1:1 the Bright-Glo Luciferase Assay System with D-PBS The experimental protocol to run the BBA is described below.
Overnight culture of LF82/Luciferase strain: Into two Falcon 50 mL tubes, add 20 mL of LB+20 μL of 50 mg/mL Kanamycin and inoculate with a loop from glycerol stock of the LF82/Luciferase strain. Incubate overnight at 37° C. with no shaking.
Glycoprotein coating of 96-well plates: Add 100 μL/well of 0.5-2 μg/mL BSA-(Man)3. 20 μg/mL BSA is used as the control background. Seal plate using an adhesive sealing film and incubate overnight at room temperature. Wash the 96-well plate three times with 150 μL/well of D-PBS, add 170 μL/well of blocking solution and incubate 45 min (minimum) at room temperature.
Preparation of bacterial suspension: Mix the two cultures tubes (40 mL) and perform a 1:10 dilution in LB (900 μl LB+100 μl culture. Measure optical density (OD) of the bacterial cultures. OD1 ˜5×10^8 cells/mL. Centrifuge LF82 culture for 20 min at 3500 rpm at room temperature. Re-suspend bacterial pellet in D-PBS and centrifuge again for 20 min at 3500 rpm. Re-suspend bacterial pellet in D-PBS to obtain a bacterial concentration of 2×10^9 bacteria/mL. Dilute 1/10 in D-PBS to obtain a final bacterial concentration of 2×10^8 bacteria/mL (=107 bacteria/50 μL). Perform 1/10 serial dilutions in LB of each bacterial suspension, plate 10 μL of dilutions on LB agar plates (final dilutions of 10^−7) and incubate overnight at 37° C. and count CFUs to determine the actual bacteria density in the assay.
Bacterial binding assay: Add 147 μL 2× binding buffer to compound plate (containing 3 μL of compound). After blocking step is performed (at least 45 min), wash plates three times with 200 μL/well of D-PBS. With a 100 μL multichannel manual pipettor, add 50 μL/well of compound diluted in 2× binding buffer. With a 100 μL multichannel manual pipettor, add 50 μL/well of bacterial suspension. Agitate at slow speed for 1 min and incubate 40-75 min at room temperature. Wash 5 times with 150 μL/well of washing buffer and then once with D-PBS. Add 100 μL/well of 1× Bright-Glo Luciferase substrate. […]

Structure (SMILES)	IC50
CNC(=O)c1cccc(-c2ccc(O[C@H]3O[C@H](CO)[C@@H](O)[C@H](O)[C@]3(C)O)cc2OC)c1 [Compound 41]	220 ± 110 nM
C[C@@]1(O)[C@@H](Oc2ccc(-c3ccc(O[C@H]4O[C@H](CO)[C@@H](O)[C@H](O)[C@]4(C)O)cc3)cc2)O[C@H](CO)[C@@H](O)[C@@H]1O [Example 106, (2R,3S,4S,5S,6R)-6-(hydroxymethyl)-3-methyl-2-[4-[4-[(2R,3S,4S,5S,6R)-3,4,5-trihydroxy-6-(hydroxymethyl)-3-methyl-tetrahydropyran-2-yl]oxyphenyl]phenoxy]tetrahydropyran-3,4,5-triol]	435 ± 115 nM
Cc1cc(-c2ccc(F)cc2)ccc1O[C@H]1O[C@H](CO)[C@@H](O)[C@H](O)[C@]1(C)O [Compound 74]	180 ± 40 nM
COc1cc(OC)cc(-c2ccc(O[C@H]3O[C@H](CO)[C@@H](O)[C@H](O)[C@]3(C)O)c(C)c2)c1 [Compound 94]	16 ± 6 nM
Cc1cc(-c2cccc(S(N)(=O)=O)c2)ccc1O[C@H]1O[C@H](CO)[C@@H](O)[C@H](O)[C@]1(C)O [Compound 84]	10 ± 2 nM
CNC(=O)c1cccc(-c2ccc(O[C@H]3O[C@H](CO)[C@@H](O)[C@H](O)[C@]3(C)O)cc2C(F)(F)F)c1 [Compound 43]	785 ± 474 nM
CNC(=O)c1cccc(-c2cccc(O[C@H]3O[C@H](CO)[C@@H](O)[C@H](O)[C@]3(C)O)c2Cl)c1 [Compound 46]	126 ± 38 nM
C[C@@]1(O)[C@@H](Oc2ccc(-c3ccc(O[C@H]4O[C@H](CO)[C@@H](O)[C@H](O)[C@]4(C)O)c(F)c3)cc2F)O[C@H](CO)[C@@H](O)[C@@H]1O [Example 112, (2R,3S,4S,5S,6R)-2-[2-fluoro-4-[3-fluoro-4-[(2R,3S,4S,5S,6R)-3,4,5-trihydroxy-6-(hydroxymethyl)-3-methyl-tetrahydropyran-2-yl]oxy-phenyl]phenoxy]-6-(hydroxymethyl)-3-methyl-tetrahydropyran-3,4,5-triol]	68 ± 11 nM
CNC(=O)c1cccc(-c2ccc(O[C@H]3O[C@H]([C@@H](O)C(C)C)[C@@H](O)[C@H](O)[C@@H]3O)c(C)c2)c1 [Compound 30]	> 10000 nM
CNC(=O)c1cccc(-c2ccc(O[C@H]3O[C@H](CO)[C@@H](O)[C@H](O)[C@@]3(O)CN=[N+]=[N-])c(C)c2)c1 [Compound 38]	105 ± 5 nM
CCc1cc(-c2ccc(O[C@H]3O[C@H](CO)[C@@H](O)[C@H](O)[C@]3(C)O)c(CC)c2)ccc1O[C@H]1O[C@H](CO)[C@@H](O)[C@H](O)[C@]1(C)O [Example 110, (2R,3S,4S,5S,6R)-2-[2-ethyl-4-[3-ethyl-4-[(2R,3S,4S,5S,6R)-3,4,5-trihydroxy-6-(hydroxymethyl)-3-methyl-tetrahydropyran-2-yl]oxy-phenyl]phenoxy]-6-(hydroxymethyl)-3-methyl-tetrahydropyran-3,4,5-triol]	3 ± 1 nM
Cc1cc(-c2cccc(-c3ccc(O[C@H]4O[C@H](CO)[C@@H](O)[C@H](O)[C@]4(C)O)c(C)c3)n2)ccc1O[C@H]1O[C@H](CO)[C@@H](O)[C@H](O)[C@]1(C)O [Example 121, (2R,3S,4S,5S,6R)-6-(hydroxymethyl)-3-methyl-2-[2-methyl-4-[6-[3-methyl-4-[(2R,3S,4S,5S,6R)-3,4,5-trihydroxy-6-(hydroxymethyl)-3-methyl-tetrahydropyran-2-yl]oxy-phenyl]-2-pyridyl]phenoxy]tetrahydropyran-3,4,5-triol]	6 ± 0.8 nM
Cc1cc(-c2cccc(C(=O)NCCOCCOCCN)c2)ccc1O[C@H]1O[C@H](CO)[C@@H](O)[C@H](O)[C@]1(C)O [Compound 22]	15 ± 4 nM
CNC(=O)c1cccc(-c2ccc(O[C@H]3O[C@H](CO)[C@@H](O)[C@H](O)[C@@]3(O)CNC(C)=O)c(C)c2)c1 [Compound 52]	48 ± 10 nM
CNC(=O)c1cccc(-c2ccc(O[C@H]3O[C@](C)(CO)[C@@H](O)[C@H](O)[C@@H]3O)c(C)c2)c1 [compound 26]	2370 ± 544 nM
CNC(=O)c1cccc(-c2ccc(O[C@H]3O[C@H](CO)[C@@H](O)[C@H](O)[C@]3(C)O)cc2C)c1 [Compound 42]	375 ± 255 nM
CNC(=O)c1ccc(CCO[C@@]2(C)O[C@H](CO)[C@@H](O)[C@H](O)[C@@H]2O)cc1 [compound 35]	1800 ± 300 nM
Cc1cc(C2CC2c2ccc(O[C@H]3O[C@H](CO)[C@@H](O)[C@H](O)[C@]3(C)O)c(C)c2)ccc1O[C@H]1O[C@H](CO)[C@@H](O)[C@H](O)[C@]1(C)O (stereo partly drawn) [Example 123, (2R,3S,4S,5S,6R)-6-(hydroxymethyl)-3-methyl-2-[2-methyl-4-[2-[3-methyl-4-[(2R,3S,4S,5S,6R)-3,4,5-trihydroxy-6-(hydroxymethyl)-3-methyl-tetrahydropyran-2-yl]oxy-phenyl]cyclopropyl]phenoxy]tetrahydropyran-3,4,5-triol]	1 ± 0.5 nM
CNC(=O)c1ccc(-c2cccc(O[C@H]3O[C@H](CO)[C@@H](O)[C@H](O)[C@]3(C)O)c2Cl)cc1 [Compound 47]	55 ± 29 nM
CNC(=O)c1cccc(-c2ccc(O[C@H]3O[C@H](CO)[C@@H](O)[C@H](O)[C@]3(C)O)cc2F)c1 [Compound 39]	265 ± 135 nM
Cc1cc(-c2ccc(-c3ccc(O[C@H]4O[C@H](CO)[C@@H](O)[C@H](O)[C@]4(C)O)c(C)c3)cc2)ccc1O[C@H]1O[C@H](CO)[C@@H](O)[C@H](O)[C@]1(C)O [Example 116, (2R,3S,4S,5S,6R)-6-(hydroxymethyl)-3-methyl-2-[2-methyl-4-[4-[3-methyl-4-[(2R,3S,4S,5S,6R)-3,4,5-trihydroxy-6-(hydroxymethyl)-3-methyl-tetrahydropyran-2-yl]oxy-phenyl]phenyl]phenoxy]tetrahydropyran-3,4,5-triol]	30 ± 13 nM
C[C@@]1(O)[C@@H](Oc2ccc3ccc(O[C@H]4O[C@H](CO)[C@@H](O)[C@H](O)[C@]4(C)O)cc3c2)O[C@H](CO)[C@@H](O)[C@@H]1O [Example 108, (2R,3S,4S,5S,6R)-6-(hydroxymethyl)-3-methyl-2-[[7-[(2R,3S,4S,5S,6R)-3,4,5-trihydroxy-6-(hydroxymethyl)-3-methyl-tetrahydropyran-2-yl]oxy-2-naphthyl]oxy]tetrahydropyran-3,4,5-triol]	158 ± 61 nM
Cc1cc(-c2ccc(F)c(C(=O)N3CCOCC3)c2)ccc1O[C@H]1O[C@H](CO)[C@@H](O)[C@H](O)[C@]1(C)O [Compound 102]	24 ± 5 nM
CNC(=O)c1cccc(-c2ccc(O[C@H]3O[C@H](CO)[C@@H](O)[C@H](O)[C@@]3(O)Cn3cc(CO)nn3)c(C)c2)c1 [Compound 51]	7150 ± 50 nM
CNC(=O)c1cccc(-c2ccc(O[C@H]3O[C@H](CO)[C@@H](O)[C@H](O)[C@]3(C)O)c(F)c2)c1 [Example 16, 3-[3-fluoro-4-[(2R,3S,4S,5S,6R)-3,4,5-trihydroxy-6-(hydroxymethyl)-3-methyl-tetrahydropyran-2-yl]oxy-phenyl]-N-methyl-benzamide]	67 ± 18 nM
COc1ccc(Cl)cc1-c1ccc(O[C@H]2O[C@H](CO)[C@@H](O)[C@H](O)[C@]2(C)O)c(C)c1 [Compound 97]	110 ± 20 nM
COc1ccc2c(c1)CC[C@]1(O2)O[C@H](CO)[C@@H](O)[C@H](O)[C@@H]1O [compound 32]	333 ± 100 nM
